Our source for the DC50 and EC50 values is patent US20240208937A1, “Compounds and Their Use for Treatment of Hemoglobinopathies” (Bristol-Myers Squibb Company, priority 2022, published 2024).

The structures appear in SMILES notation. Some results are limits rather than exact numbers.

In general, EC50 refers to the midpoint of the concentration-response curve.

Experiment [1] addresses ZBTB7A (Zinc Finger And BTB Domain Containing 7A) (Homo sapiens (Human), UniProt O95365+Q96SW2). The experiment in a line: HUDEP-2 ZBTB7A HiBiT degradation assay. Type of experiment: cell-based. To be noted: HUDEP-2 ZBTB7A HiBiT cells, 24 hours treatment, luminescence; for DC50: read-out: ZBTB7A EC50. The procedure: (§1) The HiBiT degradation assay for WIZ and ZBTB7A in HUDEP-2 cells was performed as described below. HUDEP-2 cells engineered to express a HiBiT tag in either the WIZ (Widely interspaced zinc finger) or ZBTB7A (Zinc Finger And BTB Domain Containing 7A) proteins were maintained in low attachment flasks in StemSpan SFEM II media supplemented with Penicillin-Streptomycin (50 U/mL), rhSCF (50 ng/mL), rhEPO (3 IU/mL), dexamethasone (0.4 μg/mL) and doxycycline (1 μg/mL). Prior to start of the assay, cell count and viability were measured by trypan blue exclusion using the Vi-cell XR cell viability analyzer. For the HUDEP-2 WIZ HiBiT assay, cells were transferred to a 50 mL conical and centrifuged at 500 g for five minutes. Cells were resuspended in fresh StemSpan SFEM II media supplemented with Penicillin-Streptomycin (50 U/mL), rhSCF (50 ng/mL), rhEPO (3 IU/mL), dexamethasone (0.4 μg/mL) and doxycycline (1 μg/mL) at a density of 1.0×10^6 cells/ml. Forty microliters of cell suspension was dispensed into 384-well Low Flange White Flat Bottom Polystyrene TC-treated Microplates containing pre-dispensed compounds, using a VIAFLO 384 liquid hander, and placed in a 37° C. incubator with 5% CO2. […] After 24 hours of treatment, 40 μL Nano-Glo HiBiT Lytic Detection System reagent was dispensed into each well using a VIAFLO 384 liquid hander. Plates were incubated for 25 minutes at room temperature and the luminescence was read as relative luminescent units using the EnVision plate reader. EC50 and Y-min values were calculated using curves calculated from dotmatics software after the normalization to the DMSO control of 10 different concentrations: 10, 3.33, 1.11, 0.37, 0.12, 0.04 0.0137, 0.0046, 0.0015 and 0.0005 μM respectively.
For the HUDEP-2 ZBTB7A HiBiT assay, cell count and viability were measured by trypan blue exclusion using the Vi-cell XR cell viability analyzer and the cells were transferred to a 50 mL conical and centrifuged at 500 g for five minutes. Cells were resuspended in fresh IMDM media supplemented with L-Glutamine (1×), Penicillin-Streptomycin (50 U/mL), holo-transferrin (330 μg/mL), heparin (2 IU/mL), r-human Insulin (10 μg/mL), rhEPO (3 IU/mL), rhSCF (100 ng/mL)+Dox (1 μg/mL) and 5% human plasma in low attachment flasks, which were placed in a 37° C. incubator with 5% CO2. After 48 hours, cell count and viability were measured by trypan blue exclusion using the Vi-cell XR cell viability analyzer. The HUDEP-2 ZBTB7A cells were transferred to a 50 mL conical, centrifuged at 500 g for five minutes and resuspended at a density of 1.0×10^6 cells/ml in IMDM media supplemented with L-Glutamine (1×), Penicillin-Streptomycin (50 U/mL), holo-transferrin (330 μg/mL), heparin (2 IU/mL), r-human Insulin (10 μg/mL), rhEPO (3 IU/mL), rhSCF (100 ng/mL)+Dox (1 μg/mL) and 5% human plasma. Forty microliters of cell suspension was dispensed into 384-well Low Flange White Flat Bottom Polystyrene TC-treated Microplates containing pre-dispensed compounds, using a VIAFLO 384 liquid hander, and placed in a 37° C. incubator with 5% CO2. […] After 24 hours of treatment, 40 μL Nano-Glo HiBiT Lytic Detection System reagent was dispensed into each well using a VIAFLO 384 liquid hander. Plates were incubated for 25 minutes at room temperature and the luminescence was read as relative luminescent units using the EnVision plate reader. EC50 and Y-min values were calculated using curves calculated from dotmatics software after the normalization to the DMSO control of 10 different concentrations: 10, 3.33, 1.11, 0.37, 0.12, 0.04 0.0137, 0.0046, 0.0015 and 0.0005 μM respectively.

For experiment [2], the target named is WIZ (Widely interspaced zinc finger) (Homo sapiens (Human), UniProt O95785+Q96SW2). Put plainly: HUDEP-2 WIZ HiBiT degradation assay. Type of experiment: cell-based. As to conditions: HUDEP-2 WIZ HiBiT cells, 24 hours treatment, luminescence; for DC50: read-out: WIZ EC50. The procedure:
as §1

Chain of ZBTB7A (Zinc Finger And BTB Domain Containing 7A) (O95365 whole entry, the tested form may be a part): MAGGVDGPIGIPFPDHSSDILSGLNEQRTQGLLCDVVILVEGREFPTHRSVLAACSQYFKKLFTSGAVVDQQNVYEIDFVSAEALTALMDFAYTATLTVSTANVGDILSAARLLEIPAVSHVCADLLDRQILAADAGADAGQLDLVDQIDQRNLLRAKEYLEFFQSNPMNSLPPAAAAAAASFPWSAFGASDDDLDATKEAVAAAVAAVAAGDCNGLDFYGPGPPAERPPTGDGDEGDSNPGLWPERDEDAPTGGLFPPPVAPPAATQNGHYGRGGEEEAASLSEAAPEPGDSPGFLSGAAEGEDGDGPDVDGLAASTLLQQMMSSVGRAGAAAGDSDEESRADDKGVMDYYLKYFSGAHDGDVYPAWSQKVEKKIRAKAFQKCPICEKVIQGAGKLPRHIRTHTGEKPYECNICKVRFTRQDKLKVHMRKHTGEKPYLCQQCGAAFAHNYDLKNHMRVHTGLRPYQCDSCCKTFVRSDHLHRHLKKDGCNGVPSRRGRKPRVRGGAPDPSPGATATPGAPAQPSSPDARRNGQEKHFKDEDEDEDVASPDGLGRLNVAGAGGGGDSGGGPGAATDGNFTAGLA
Chain of ZBTB7A (Zinc Finger And BTB Domain Containing 7A) (Q96SW2 whole entry, the tested form may be a part): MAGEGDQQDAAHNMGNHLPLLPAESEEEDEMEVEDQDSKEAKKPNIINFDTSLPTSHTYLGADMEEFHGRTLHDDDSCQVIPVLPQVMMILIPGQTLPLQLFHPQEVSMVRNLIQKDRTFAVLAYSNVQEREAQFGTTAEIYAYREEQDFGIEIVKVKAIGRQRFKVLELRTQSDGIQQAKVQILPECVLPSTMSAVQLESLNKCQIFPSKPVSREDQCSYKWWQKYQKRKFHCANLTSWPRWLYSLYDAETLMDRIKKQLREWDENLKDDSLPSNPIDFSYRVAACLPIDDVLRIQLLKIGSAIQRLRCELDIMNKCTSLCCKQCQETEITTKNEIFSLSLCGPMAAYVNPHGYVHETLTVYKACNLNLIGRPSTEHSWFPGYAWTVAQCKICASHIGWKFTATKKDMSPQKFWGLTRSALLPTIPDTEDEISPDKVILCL
Chain of ZBTB7A (Zinc Finger And BTB Domain Containing 7A) (Q16531 whole entry partner, the tested form may be a part): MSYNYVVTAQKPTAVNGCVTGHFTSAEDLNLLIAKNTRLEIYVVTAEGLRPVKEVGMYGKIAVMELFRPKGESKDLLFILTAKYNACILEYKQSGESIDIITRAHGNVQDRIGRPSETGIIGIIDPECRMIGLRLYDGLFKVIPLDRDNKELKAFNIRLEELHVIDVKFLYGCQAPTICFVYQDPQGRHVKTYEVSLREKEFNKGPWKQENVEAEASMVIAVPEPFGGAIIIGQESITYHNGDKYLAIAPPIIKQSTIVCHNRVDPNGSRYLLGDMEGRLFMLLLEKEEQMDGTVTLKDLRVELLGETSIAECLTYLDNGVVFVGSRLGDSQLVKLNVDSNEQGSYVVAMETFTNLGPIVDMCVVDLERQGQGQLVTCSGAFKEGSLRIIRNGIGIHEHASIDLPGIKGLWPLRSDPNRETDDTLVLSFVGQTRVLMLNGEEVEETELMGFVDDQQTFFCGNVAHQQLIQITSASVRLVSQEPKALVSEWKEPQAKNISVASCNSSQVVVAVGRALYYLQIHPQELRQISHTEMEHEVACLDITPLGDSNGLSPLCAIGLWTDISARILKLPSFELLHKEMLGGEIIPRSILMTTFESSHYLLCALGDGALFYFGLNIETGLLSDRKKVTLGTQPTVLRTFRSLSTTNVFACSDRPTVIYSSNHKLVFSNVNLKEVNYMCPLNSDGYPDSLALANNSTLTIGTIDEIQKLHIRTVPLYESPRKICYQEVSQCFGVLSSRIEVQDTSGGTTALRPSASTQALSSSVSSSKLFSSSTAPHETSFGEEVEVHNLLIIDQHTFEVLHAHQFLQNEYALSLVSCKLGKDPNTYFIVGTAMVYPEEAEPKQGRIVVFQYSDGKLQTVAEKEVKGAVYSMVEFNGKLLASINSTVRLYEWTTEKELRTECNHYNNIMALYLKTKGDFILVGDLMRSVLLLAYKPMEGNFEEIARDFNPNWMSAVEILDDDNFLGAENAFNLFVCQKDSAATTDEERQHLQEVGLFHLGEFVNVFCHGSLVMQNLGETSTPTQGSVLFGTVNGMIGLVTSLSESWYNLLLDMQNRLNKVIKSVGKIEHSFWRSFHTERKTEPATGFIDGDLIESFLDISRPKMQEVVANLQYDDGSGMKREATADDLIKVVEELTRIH
Chain of WIZ (Widely interspaced zinc finger) (O95785 whole entry): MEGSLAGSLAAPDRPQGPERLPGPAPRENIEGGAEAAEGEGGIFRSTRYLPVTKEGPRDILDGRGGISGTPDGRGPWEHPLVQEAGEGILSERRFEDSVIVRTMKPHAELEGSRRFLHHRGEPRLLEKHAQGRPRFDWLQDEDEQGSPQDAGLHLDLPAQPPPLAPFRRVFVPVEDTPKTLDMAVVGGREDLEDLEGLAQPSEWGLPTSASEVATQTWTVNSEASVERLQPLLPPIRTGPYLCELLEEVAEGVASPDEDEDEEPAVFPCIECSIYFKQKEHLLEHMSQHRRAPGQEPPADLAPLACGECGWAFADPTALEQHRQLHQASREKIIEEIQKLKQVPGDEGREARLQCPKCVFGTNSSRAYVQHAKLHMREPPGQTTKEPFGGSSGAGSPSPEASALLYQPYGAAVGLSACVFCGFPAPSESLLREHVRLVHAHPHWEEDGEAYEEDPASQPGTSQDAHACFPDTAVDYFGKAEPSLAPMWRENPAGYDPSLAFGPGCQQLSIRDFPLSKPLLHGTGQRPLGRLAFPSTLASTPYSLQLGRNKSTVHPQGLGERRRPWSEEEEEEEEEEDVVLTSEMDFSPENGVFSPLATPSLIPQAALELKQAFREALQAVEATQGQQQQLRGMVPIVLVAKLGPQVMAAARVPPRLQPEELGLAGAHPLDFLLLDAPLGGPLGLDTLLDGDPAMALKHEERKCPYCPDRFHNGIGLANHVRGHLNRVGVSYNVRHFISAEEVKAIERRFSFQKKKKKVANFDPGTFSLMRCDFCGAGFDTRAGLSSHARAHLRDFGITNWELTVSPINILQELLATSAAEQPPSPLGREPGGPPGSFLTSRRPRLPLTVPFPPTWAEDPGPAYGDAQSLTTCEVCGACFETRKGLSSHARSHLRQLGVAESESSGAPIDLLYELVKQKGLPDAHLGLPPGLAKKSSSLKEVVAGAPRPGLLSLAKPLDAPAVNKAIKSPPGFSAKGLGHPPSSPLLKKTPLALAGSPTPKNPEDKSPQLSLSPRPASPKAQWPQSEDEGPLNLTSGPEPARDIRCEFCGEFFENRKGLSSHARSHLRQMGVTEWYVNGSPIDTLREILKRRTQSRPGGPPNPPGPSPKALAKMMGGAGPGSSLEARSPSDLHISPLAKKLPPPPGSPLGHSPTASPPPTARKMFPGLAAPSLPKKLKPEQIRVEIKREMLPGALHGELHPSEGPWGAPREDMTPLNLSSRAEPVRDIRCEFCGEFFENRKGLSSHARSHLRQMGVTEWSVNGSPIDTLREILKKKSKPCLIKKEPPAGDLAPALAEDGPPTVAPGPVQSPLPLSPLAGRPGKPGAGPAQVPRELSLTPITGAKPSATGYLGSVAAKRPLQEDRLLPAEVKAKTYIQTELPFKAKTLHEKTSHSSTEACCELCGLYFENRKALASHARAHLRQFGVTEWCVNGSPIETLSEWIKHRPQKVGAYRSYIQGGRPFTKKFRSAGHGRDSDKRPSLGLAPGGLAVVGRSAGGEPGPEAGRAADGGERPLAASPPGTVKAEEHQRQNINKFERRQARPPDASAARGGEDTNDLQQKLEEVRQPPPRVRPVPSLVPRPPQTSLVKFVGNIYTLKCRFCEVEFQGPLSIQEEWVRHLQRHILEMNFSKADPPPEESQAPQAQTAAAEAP
Chain of WIZ (Widely interspaced zinc finger) (Q96SW2 whole entry): as the sequence (Q96SW2 whole entry, the tested form may be a part) above
Chain of WIZ (Widely interspaced zinc finger) (Q16531 whole entry partner): as the sequence (Q16531 whole entry partner, the tested form may be a part) above

Take `COc1cc(-c2cc3c(cc2Nc2cccc4c2C(=O)N(C2CCC(=O)NC2=O)C4=O)N(C)C(=O)CC3)c(F)cn1` (stereo not shown) [Compound 51, 2-(2,6-dioxopiperidin-3-yl)-4-((6-(5-fluoro-2-methoxypyridin-4-yl)-1-methyl-2-oxo-1,2,3,4-tetrahydroquinolin-7-yl)amino)isoindoline-1,3-dione]: the results for the DC50 in experiment [1] and in experiment [2] were 0.03 to 0.1 µM and 0.01 to 0.1 µM, respectively.

The molecule `COc1nccc(-c2cc3c(cc2Nc2cccc4c2C(=O)N(C2CCC(=O)NC2=O)C4=O)N(C)C(=O)CC3)c1F` (stereo not shown) [Compound 50, 2-(2,6-dioxopiperidin-3-yl)-4-((6-(3-fluoro-2-methoxypyridin-4-yl)-1-methyl-2-oxo-1,2,3,4-tetrahydroquinolin-7-yl)amino)isoindoline-1,3-dione] returned an EC50 in experiment [1] of under 0.03 µM. In addition, the DC50 in experiment [2] was in the range of 0.01 to 0.1 µM.

On to `Cc1cc2c(cc1Nc1cccc3c1C(=O)N(C1CCC(=O)NC1=O)C3=O)N(C)C(=O)CC2` (stereo not shown) [Compound 33, 4-((1,6-dimethyl-2-oxo-1,2,3,4-tetrahydroquinolin-7-yl)amino)-2-(2,6-dioxopiperidin-3-yl)isoindoline-1,3-dione], for which the figures for the DC50 in experiment [1] and in experiment [2] were 0.03 to 0.1 µM and 0.01 to 0.1 µM, respectively.

Regarding `Cc1cc(-c2cc3c(cc2Nc2cccc4c2C(=O)N([C@H]2CCC(=O)NC2=O)C4=O)N(C)C(=O)CC3)cn(C)c1=O` [Compound 35, (S)-4-((6-(1,5-dimethyl-6-oxo-1,6-dihydropyridin-3-yl)-1-methyl-2-oxo-1,2,3,4-tetrahydroquinolin-7-yl)amino)-2-(2,6-dioxopiperidin-3-yl)isoindoline-1,3-dione], the DC50 lay in the range of 0.03 to 0.1 µM in experiment [1] and 0.01 to 0.1 µM in experiment [2].

As for `CN1C(=O)CCc2cc(-c3cnn(C)c3)c(Nc3cccc4c3C(=O)N(C3CCC(=O)NC3=O)C4=O)cc21` (stereo not shown) [Compound 36, 2-(2,6-dioxopiperidin-3-yl)-4-((1-methyl-6-(1-methyl-1H-pyrazol-4-yl)-2-oxo-1,2,3,4-tetrahydroquinolin-7-yl)amino)isoindoline-1,3-dione], the EC50 in experiment [1] is under 0.03 µM. For the same molecule, the DC50 in experiment [2] lay in the range of 0.01 to 0.1 µM.

In experiment [1], `CN1C(=O)CCc2cc(C3CC3)c(Nc3cccc4c3C(=O)N(C3CCC(=O)NC3=O)C4=O)cc21` (stereo not shown) [Compound 34, 4-((6-cyclopropyl-1-methyl-2-oxo-1,2,3,4-tetrahydroquinolin-7-yl)amino)-2-(2,6-dioxopiperidin-3-yl)isoindoline-1,3-dione] displayed an EC50 of under 0.03 µM. Further, the DC50 in experiment [2] was 0.01 to 0.1 µM.

For `COc1cc(-c2cc3c(cc2Nc2cccc4c2C(=O)N([C@H]2CCC(=O)NC2=O)C4=O)N(C)C(=O)CC3)cc(C)n1` [Compound 49, (S)-2-(2,6-dioxopiperidin-3-yl)-4-((6-(2-methoxy-6-methylpyridin-4-yl)-1-methyl-2-oxo-1,2,3,4-tetrahydroquinolin-7-yl)amino)isoindoline-1,3-dione], the results for the EC50 in experiment [1] and in experiment [2] were under 0.03 µM and under 0.01 µM, respectively.

On to `CN1C(=O)CCc2cc(-c3cnn(C4CC4)c3)c(Nc3cccc4c3C(=O)N([C@H]3CCC(=O)NC3=O)C4=O)cc21` [Compound 37, (S)-4-((6-(1-cyclopropyl-1H-pyrazol-4-yl)-1-methyl-2-oxo-1,2,3,4-tetrahydroquinolin-7-yl)amino)-2-(2,6-dioxopiperidin-3-yl)isoindoline-1,3-dione], for which the EC50 in experiment [1] is under 0.03 µM; in experiment [2] it was under 0.01 µM.

In turn, `Cc1cc(-c2cc3c(cc2Nc2cccc4c2C(=O)N([C@]2(C)CCC(=O)NC2=O)C4=O)N(C)C(=O)CC3)ccn1` [Compound 53, (R)-2-(3-methyl-2,6-dioxopiperidin-3-yl)-4-((1-methyl-6-(2-methylpyridin-4-yl)-2-oxo-1,2,3,4-tetrahydroquinolin-7-yl)amino)isoindoline-1,3-dione] displayed an EC50 in experiment [1] of over 0.1 µM. The DC50 in experiment [2] was over 0.1 µM.

Consider `Cc1nn(C)cc1-c1cc2c(cc1Nc1cccc3c1C(=O)N([C@H]1CCC(=O)NC1=O)C3=O)N(C)C(=O)CC2` [Compound 38, (S)-4-((6-(1,3-dimethyl-1H-pyrazol-4-yl)-1-methyl-2-oxo-1,2,3,4-tetrahydroquinolin-7-yl)amino)-2-(2,6-dioxopiperidin-3-yl)isoindoline-1,3-dione], for which the EC50 in experiment [1] was under 0.03 µM. Moreover, the DC50 in experiment [2] fell in the range of 0.01 to 0.1 µM.

Turning to `CC1(N2C(=O)c3cccc(Nc4cccc(COc5ccccc5)c4)c3C2=O)CCC(=O)NC1=O` (stereo not shown) [Compound 54, 2-(3-methyl-2,6-dioxopiperidin-3-yl)-4-((3-(phenoxymethyl)phenyl)amino)isoindoline-1,3-dione], in experiment [1], the 50% effective concentration (EC50) was over 0.1 µM. Moreover, the DC50 in experiment [2] was over 0.1 µM.
